Read-outs that look alike come from different tables or passages of the source.

Experiment [1] deals with A549 (NSCLC) cell line. Description: Cancer cell cytotoxicity assay (Calcein AM / Cell Titer-Glo), A549. In kind it is cell-based, human. As for the experimental part: (§1) Compounds of the invention and comparative compounds were assayed in three cancer cell lines to confirm cytotoxic activity and to set a range of concentrations to use in subsequent assays. All cell lines were maintained in RPMI medium 1640 supplemented with 10% (wt/vol) fetal bovine serum and penicillin-streptomycin (100 units/ml and 100 μg/ml). Cells were routinely checked for microbial or mycoplasma contamination and if necessary replaced. Cells were harvested by trypsinization using 0.25% trypsin and 0.1% EDTA and then counted in a ViCell XR coulter counter in duplicate, before and after dilution for assay plating. Between four to nine different types of human cancer cells were plated at a density of 10,000-15,000 cells per well of each 96-well black tissue culture treated microtiter plate, then were grown for 1 hour at 37° C. with 5% CO2/95% air in a humidified incubator to allow cells to attach before compound addition. Compound stocks (100×) were prepared in 96-well V-bottom polypropylene microtiter plates. Five serial (1:2) dilutions were made with anhydrous DMSO at 100× the final concentration used in the assay. The individual wells in compound-containing […] well plates were diluted 1:10 with complete cell culture medium and the 10× (10 μL) stocks were added to 90 μl of cells in each plate to ensure full mixing of stocks with culture media by using a Biomek FX liquid handler with 96-well head. Doxorubicin was used as the control to monitor the behavior of each cell line. Cells were incubated with the compounds for 3 to 4 days before fluorescence and luminescence reading. Test plates were removed from the incubator and washed once in sterile PBS to remove serum containing calcium esterases. Calcein AM (acetoxymethyl ester) reagent was added and the cells were incubated for 30 min at 37° C. Plates were read for emission by using a fluorescein filter (excitation 485 nm, emission 535 nm). An equal volume (30 μL) of Cell Titer-Glo reagent (Promega Corporation, Inc.) was added and incubated for 10 min at room temperature with gentle agitation to lyse the cells. Each plate was re-read for luminescence to confirm the inhibition observed in the fluorescent […] assay as a measure of cell viability. The cancer cell cytotoxicity assays were run in triplicate using ≧5 different drug concentrations, and the data were analyzed to establish statistical significance and a valid IC50 value for inhibition of cell growth, based on ≧2 log differences in drug effect.
(§2) The cancer cell cytotoxicities (determined substantially according to the method of Example 5) of various compounds of the invention and comparative compounds as determined in four to five different human cancer cell lines are shown in Table 1. The structures of the compounds listed are found in FIGS. 2-4.

The next experiment has as its system H1299 (NSCLC) cell line. Description: Cancer cell cytotoxicity assay (Calcein AM / Cell Titer-Glo), H1299. In kind it is cell-based, human. As for the experimental part: as §1, §2
Experiment [2] relates to NCI-H460 (NSCLC) cell line. Description: Cancer cell cytotoxicity assay (Calcein AM / Cell Titer-Glo), NCI-H460. In kind it is cell-based, human. The method, then: as §1, §2
Experiment [3] relates to HT29 (Colorectal) cell line. Description: Cancer cell cytotoxicity assay (Calcein AM / Cell Titer-Glo), HT29. In kind it is cell-based, human. As for the experimental part: as §1, §2
Experiment [4] concerns SKOV3 (Ovarian) cell line. Description: Cancer cell cytotoxicity assay (Calcein AM / Cell Titer-Glo), SKOV3. It is filed as cell-based, human. As for the experimental part: as §1, §2
Experiment [5] concerns A549 (NSCLC) cell line. The note with it: footnote 2: data from Langenhan et al. 2005; cited from earlier work.
For experiment [6], the system named is NCI-H460 (NSCLC) cell line. The note with it: footnote 2: data from Langenhan et al. 2005; cited from earlier work.
The test system of experiment [7] is SKOV3 (Ovarian) cell line. The note with it: footnote 2: data from Langenhan et al. 2005; cited from earlier work.
The next experiment has as its system human cancer cell lines. Description: Cancer cell cytotoxicity, summary over four to five human cancer cell lines. In kind it is cell-based. The note with it: read-out: IC50 values (cancer cell cytotoxicity). The method, then: as §1, §2
Setting [8] is: NSCLC, footnote 3: determined at same time as CEN07-117 and -121.
[9] abbreviates: NSCLC, footnote 4: determined at same time as CEN08-177 and -178.
Setting [10] is: NSCLC, footnote 5: determined at same time as CEN08-193.
[11] abbreviates: NSCLC, footnote 6: determined at same time as CEN08-243 and -244.
The mark [12] stands for this setting: NSCLC, footnote 7: determined at same time as CEN08-180.
[13] abbreviates: Colorectal, footnote 3: determined at same time as CEN07-117 and -121.
[14] abbreviates: Colorectal, footnote 5: determined at same time as CEN08-193.
The mark [15] stands for this setting: Colorectal, footnote 7: determined at same time as CEN08-180.
[16] abbreviates: Ovarian, footnote 5: determined at same time as CEN08-193.
The mark [17] stands for this setting: Ovarian, footnote 7: determined at same time as CEN08-180.
[18] abbreviates: Homo sapiens, A549, NSCLC, footnote 6: determined at same time as CEN08-243 and -244.
[19] abbreviates: Homo sapiens, NCI-H1299, NSCLC, footnote 6: determined at same time as CEN08-243 and -244.
Where [20] appears, read: Homo sapiens, NCI-H460, NSCLC, footnote 6: determined at same time as CEN08-243 and -244.
Where [21] appears, read: Homo sapiens, SK-OV-3, Ovarian, footnote 6: determined at same time as CEN08-243 and -244.

For orientation: IC50 means the concentration at which inhibition is half-maximal. Turning to `CON(C1CCC2(C)C(CCC3C2CCC2(C)C(C4=CC(=O)OC4)CCC32O)C1)C1OCC(O)C(O)C1O` [CEN07-W-102 (5S), reference compound], the IC50 in the experiment with A549 (NSCLC) cell line [1] (setting [8]) is 0.04 µM; with A549 (NSCLC) cell line [1] (setting [9]), 0.01 µM; in the experiment on A549 (NSCLC) cell line [1] (setting [10]), 0.003 µM; in the experiment with A549 (NSCLC) cell line [1] (setting [11]) it was 0.017 µM; with A549 (NSCLC) cell line [1] (setting [12]), 0.008 µM; with H1299 (NSCLC) cell line (NSCLC, assay set not specified) it was 0.009 µM. Also, the IC50 was 0.11 µM in the experiment with H1299 (NSCLC) cell line (setting [8]); 0.02 µM in the experiment on H1299 (NSCLC) cell line (setting [9]); 0.006 µM in the experiment with H1299 (NSCLC) cell line (setting [10]); 0.02 µM with H1299 (NSCLC) cell line (setting [11]); 0.11 µM in experiment [2] (setting [8]); 0.01 µM in [2] (setting [9]). The IC50 is 0.005 µM in experiment [2] (setting [10]); 0.015 µM in [2] (setting [11]); 0.024 µM in experiment [2] (setting [12]); 0.02 µM in [3] (Colorectal, assay set not specified); 0.12 µM in experiment [3] (setting [13]); 0.007 µM in experiment [3] (setting [14]). Besides, the IC50 in experiment [3] (setting [15]) is 0.033 µM; in [4] (Ovarian, assay set not specified), 0.31 µM; in [4] (Ovarian, footnote 4: determined at same time as CEN08-177 and -178) it was 0.04 µM; in experiment [4] (setting [16]), 0.026 µM; in experiment [4] (Ovarian, footnote 6: determined at same time as CEN08-243 and -244), 0.025 µM; in experiment [4] (setting [17]), 0.036 µM. Further, the results for the IC50 (in the experiment on A549 (NSCLC) cell line [5]; in [6]; in [7]) were 0.033 µM, 0.053 µM and 0.045 µM, respectively.
Take `CON(C1CCC2(C)C(CCC3C2CCC2(C)C(C4=CC(=O)OC4)CCC32O)C1)C1OCC(O)C(O)C1O` [CEN07-W-101 (23S), reference compound]: the IC50 in the experiment with A549 (NSCLC) cell line [1] (setting [8]) is 0.05 µM; in the experiment with A549 (NSCLC) cell line [1] (setting [10]) it was 0.004 µM; in the experiment on A549 (NSCLC) cell line [1] (setting [12]) it was 0.009 µM; with H1299 (NSCLC) cell line (NSCLC, assay set not specified) it was 0.017 µM; with H1299 (NSCLC) cell line (setting [8]) it was 0.17 µM; in the experiment with H1299 (NSCLC) cell line (setting [10]), 0.006 µM. Moreover, the IC50 in experiment [2] (setting [8]) was 0.15 µM; in [2] (setting [10]) it was 0.008 µM; in experiment [2] (setting [12]), 0.037 µM; in experiment [3] (setting [13]) it was 0.1 µM; in experiment [3] (setting [14]) it was 0.009 µM; in experiment [3] (setting [15]) it was 0.046 µM. For the same compound, the IC50 was 0.039 µM in experiment [4] (setting [16]); 0.051 µM in experiment [4] (setting [17]); 0.079 µM with A549 (NSCLC) cell line [5]; 0.08 µM in experiment [6]; 0.22 µM in experiment [7].
Take `C[C@]12CC[C@H](O[C@H]3OC[C@H](O)[C@@H](O)C3O)C[C@H]1CCC1C2CC[C@]2(C)[C@@H](C3=CC(=O)OC3)CC[C@]12O` (stereo partly drawn) [CEN08-178, 3-O-digitoxigenin-L-riboside]: the IC50 with A549 (NSCLC) cell line [1] (Homo sapiens, A549, NSCLC, footnote 4: determined at same time as CEN08-177 and -178) was 0.02 µM; with H1299 (NSCLC) cell line (Homo sapiens, NCI-H1299, NSCLC, footnote 4: determined at same time as CEN08-177 and -178) it was 0.05 µM; in experiment [2] (Homo sapiens, NCI-H460, NSCLC, footnote 4: determined at same time as CEN08-177 and -178) it was 0.02 µM; in [3] (Homo sapiens, HT-29, Colorectal, footnote 4: determined at same time as CEN08-177 and -178), 0.07 µM; in experiment [4] (Homo sapiens, SK-OV-3, Ovarian, footnote 4: determined at same time as CEN08-177 and -178) it was 0.08 µM; with human cancer cell lines, less than 0.08 µM.
As for `C[C@]12CCC(OC3OC[C@H](O)[C@@H](O)[C@@H]3O)C[C@H]1CCC1C2CC[C@]2(C)[C@@H](C3=CCOC3=O)CC[C@]12O` (stereo partly drawn) [CEN08-193], the half-maximal inhibitory concentration (IC50) in the experiment on A549 (NSCLC) cell line [1] (Homo sapiens, A549, NSCLC, footnote 5: determined at same time as CEN08-193) is 0.004 µM; with H1299 (NSCLC) cell line (Homo sapiens, NCI-H1299, NSCLC, footnote 5: determined at same time as CEN08-193) it was 0.006 µM; in experiment [2] (Homo sapiens, NCI-H460, NSCLC, footnote 5: determined at same time as CEN08-193) it was 0.009 µM; in experiment [3] (Homo sapiens, HT-29, Colorectal, footnote 5: determined at same time as CEN08-193), 0.011 µM; in [4] (Homo sapiens, SK-OV-3, Ovarian, footnote 5: determined at same time as CEN08-193), 0.051 µM; with human cancer cell lines, less than 0.08 µM.
`CON(C1OC[C@H](N)[C@H](O)[C@@H]1O)[C@@H]1C=C2CCC3C(CC[C@]4(C)[C@@H](c5ccc(=O)oc5)CC[C@]34O)[C@@]2(C)CC1` (stereo partly drawn) [CEN08-244, (3S)-3-N-methoxyamino-scillarenin-L-neo-4-amino-4-deoxyriboside]: the IC50 in the experiment on A549 (NSCLC) cell line [1] (setting [18]) was 0.004 µM; in the experiment with H1299 (NSCLC) cell line (setting [19]), 0.01 µM; in [2] (setting [20]), 0.006 µM; in [4] (setting [21]) it was 0.006 µM; in the experiment with human cancer cell lines, less than 0.08 µM.
As for `CON(C1C=C2CCC3C(CC[C@]4(C)[C@@H](c5ccc(=O)oc5)CC[C@]34O)[C@@]2(C)CC1)[C@H]1OC[C@H](N)[C@H](O)C1O` (stereo partly drawn) [CEN08-243, (3S)-3-N-methoxyamino-scillarenin-L-neo-4-amino-4-deoxyxyloside], the IC50 with A549 (NSCLC) cell line [1] (setting [18]) is 0.003 µM; in the experiment with H1299 (NSCLC) cell line (setting [19]) it was 0.007 µM; in [2] (setting [20]), 0.005 µM; in experiment [4] (setting [21]) it was 0.005 µM; in the experiment with human cancer cell lines, less than 0.08 µM.
Turning to `CON[C@H]1CC[C@@]2(C)[C@H](CC[C@@H]3[C@@H]2CC[C@]2(C)[C@@H](C4=CC(=O)OC4)CC[C@]32O)C1` [(3β)-3-N-methoxyaminodigitoxigenin], the IC50 in the experiment on A549 (NSCLC) cell line [5] was 8.3 µM; in [6], 2.4 µM; in experiment [7], 3 µM.
`C[C@H]1O[C@@H](O[C@H]2[C@@H](O)C[C@H](O[C@H]3[C@@H](O)C[C@H](O[C@H]4CC[C@@]5(C)[C@H](CC[C@@H]6[C@@H]5CC[C@]5(C)[C@@H](C7=CC(=O)OC7)CC[C@]65O)C4)O[C@@H]3C)O[C@@H]2C)C[C@H](O)[C@@H]1O` [Digitoxin]: the IC50 is 0.28 µM in the experiment with A549 (NSCLC) cell line [5], 0.28 µM in experiment [6] and 0.7 µM in experiment [7].

The values above are taken from patent US8703723B2, “Glycoside compounds and pharmaceutical compositions thereof” (Centrose, LLC, priority 2009, dated 2014).
